Data from patent US6812010B1, “Method for enzymatic preparation of homogentisate” (Aventis Cropscience SA, priority 1997, dated 2004).

Tests used:
[1] = system: HPP-oxidase (protein extract from Arthrobacter globiformis); assay: HPP-oxidase activity assay with inhibition by an HPPD inhibitor (HPLC detection of HPA); format: biochemical; settings: 100 μM of HPPD inhibitor; 30° C., 5 min
Experimental: The cell pellet, which is approximately 3.4 g, is resuspended in 7 ml of extraction buffer (0.05 M potassium phosphate pH 7.5, 0.1 mM TPP, 0.1 mM MgCl2 and 5 mM mercaptoethanol) and sonicated twice at 23 kHz for 2.5 min. The resulting suspension is centrifuged at 44,000×g for 20 min. The harvested supernatant is again centrifuged at 100,000×g for 60 min. 0.7 ml of 2% protamine sulphate in the extraction buffer is added to the new 7-ml supernatant, followed by gentle stirring. The precipitate which forms is removed by a centrifugation at 20,000×g for 20 min. Ammonium sulphate is gradually added to the supernatant thus obtained so as to reach 60% saturation. This new preparation is stirred for 30 min., and the precipitate formed harvested by centrifugation at 20,000×g for 20 min. The pellet is redissolved in 0.5 ml of extraction buffer and aliquoted in 0.1-ml fractions, these fractions being kept at −80° C. before use.
The HPP-oxidase activity is measured in a 96-well microtitration plate with 200 μl of reaction per well consisting of […] of 67 mM sodium phosphate pH 7.4, 10 μl of 13.4 mM glutathione, 10 μl of 67 mM MgCl2, 10 μl of 26.7 mM TPP, 10 μl of 67 μM FAD, […] (i.e. approximately 6 μg) and 10 μl of 2.5 mM HPP. […]
The plate is then centrifuged at 2000 rpm for 15 min., and the supernatant is analysed by HPLC. […]

[2] = system: HPA-hydroxylase (protein extract from Pseudomonas acidovorans); assay: HPA-hydroxylase activity assay with inhibition by an HPPD inhibitor (HPLC detection of HMO); format: biochemical; settings: 100 μM of HPPD inhibitor; 30° C., 5 min
Experimental: The cell pellet, which is approximately 0.5 g, is resuspended in 1.5 ml of extraction buffer (0.1 M potassium phosphate pH 7.2, 1 mM DTE and 5 mM MgMgSO4) and sonicated twice at 23 kHz for 2.5 min. The resulting suspension is centrifuged at 44,000×g for 20 min. The harvested supernatant is again centrifuged at 100,000×g for 60 min. The new supernatant is aliquoted in 0.1-ml fractions, these fractions being kept at −80° C. before use. The HPA-hydroxylase activity is measured in a 96-well microtitration plate with 200 μl of reaction per well consisting of 150 μl of 0.1 M sodium phosphate fits pH 7.2, 10 μl of 20 mM DTE, 10 μl of 3 mM NADH, 15 μl of 67 μM FAD, 10 μl of protein (i.e. approximately 7 μg) and 5 μl of 10 mM HPA. When an assay for inhibition by an HPPD inhibitor is carried out, 2 μl of 10 mM 4-[4-trifluoromethyl-2-(methylsulphonyl)benzoyl]-5-cyclopropylisoxazole are added to a phosphate buffer containing 20% of DMSO. The reaction is initiated by adding the substrate, HPA; it takes place at 30° C. for 5 min. with stirring. The reaction is stopped by adding 33 μl of 25% perchloric acid. The plate is then centrifuged at 2000 rpm for 15 min., and the supernatant is analysed by HPLC. 10 μl of the supernatant is injected onto a Spherisorb ODS2 column equilibrated with buffer A (5.5% acetonitrile, 0.1% TFA) at the flow rate of 1.5 ml/min. The detection is carried out at 292 nm. […]

**Q.** With `CS(=O)(=O)c1cc(C(F)(F)F)ccc1C(=O)c1cnoc1C1CC1` [HPPD inhibitor, 4-[4-trifluoromethyl-2-(methylsulphonyl)benzoyl]-5-cyclopropylisoxazole] as the molecule, how does the “inhibition of the enzyme transforming HPP into HPA” value [1] read?
**A.** Its value is “not inhibited”.

**Q.** What about the “inhibition of the enzyme transforming HPA into HMO” value [2] of the same molecule?
**A.** The value was “not inhibited”.
